These are literature values, as cited in patent publication US7718385B2, “Bioactivation of alkylating agents for cancer treatment” (priority 2003, dated 2010).

The GI50 is the concentration at which growth is held to half of that of the control.

One data set concerns UO-31. To be noted: UO-31, Renal; cited from earlier work.
Another data set relates to NCI-H322M. Conditions: cited from earlier work.
For another data set, the system named is SF-295. Conditions: SF-295, Central Nervous System, cited from earlier work.
The test system of the next data set is SN12C. To be noted: cited from earlier work.

For the compound `CC1=C(CO)C2=C(C)C3(CC3)[C@@](C)(O)C(=O)C2=C1` [Irofulven, 6-hydroxymethylacylfulvene], the GI50 in the data set with UO-31 was 200 nM; in the data set with NCI-H322M (Non-Small Cell Lung), 251 nM; in the data set with SF-295, 316 nM; in the data set with SN12C (Renal), 398 nM. For the same compound, the TGI in the data set on UO-31 was 5.01E−07; in the data set on NCI-H322M (Non-Small Cell Lung) it was 6.31E−07; in the data set with SF-295, 6.31E−06; with SN12C (Renal) it was 5.01E−06. Further, the “log(GI50)” value in the data set with UO-31 was −6.7; with NCI-H322M (Non-Small Cell Lung), −6.6; with SF-295 it was −6.5; in the data set with SN12C (Renal) it was −6.4. In addition, the “log(TGI)” value in the data set on UO-31 is listed as −6.3; in the data set with NCI-H322M (Non-Small Cell Lung) it was −6.2; in the data set with SF-295 it was −5.2; in the data set on SN12C (Renal), −5.3. Moreover, the “log(LC50)” value is −4.9 in the data set on NCI-H322M (Non-Small Cell Lung), −5 in the data set with SF-295 and −4.3 with SN12C (Renal). Besides, the CC50 is 12600 nM with NCI-H322M (read-out: LC50, Non-Small Cell Lung); 10000 nM in the data set on SF-295 (read-out: LC50); 50100 nM in the data set with SN12C (read-out: LC50, Renal).
